# According to patent US8088791B2, “Antibacterial agents” (Biots Scientific Management Pty Ltd, priority 2006, dated 2012):
# Where two headings read alike, the source gives them in different places.
# Tests used:
# Type in all cases: cell-based
# [1] = test system: Bacillus subtilis 168CA; test: Minimum Inhibitory Concentration (MIC) testing, broth microdilution, Bacillus subtilis; conditions: Bacillus subtilis 168CA; read-out: Bacillus subtilis MICs Activity
# Summary of the method: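 MICs were scored A (≦8 μg/ml), B (16–64 μg/ml) or C (>64 μg/ml), read as the lowest concentration preventing visible growth by eye and spectrophotometry. Plates incubated overnight (16–20 h) at 37 °C, inoculum OD 0.09 diluted 1:100 in 2× broth, per NCCLS guidelines.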
# [2] = test system: Staphylococcus aureus ATCC29213; test: Minimum Inhibitory Concentration (MIC) testing, broth microdilution, Staphylococcus aureus; conditions: Staphylococcus aureus ATCC29213; read-out: Staphylococcus aureus MICs Activity
# Summary of the method: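 Broth microdilution per NCCLS M7-A5 in Mueller Hinton broth, with compound in 1.6% DMSO and inoculum at OD 0.09 diluted 1:100. Plates incubated 16–20 h at 37°C. MIC is the lowest concentration with no visible growth; scored A ≤8, B 16–64, C >64 μg/ml.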
# [3] = test system: various bacterial species; test: Minimum Inhibitory Concentration (MIC) testing, broth microdilution, other bacterial species
# Procedure: Compounds of this invention were tested for antimicrobial activity by susceptibility testing in liquid media. MICs for compounds against each strain were determined by a broth microdilution method according to the National Committee for Clinical Laboratory Standards (NCCLS) guidelines. (NCCLS. 2000. Methods for dilution antimicrobial susceptibility tests for bacteria that grow aerobically—fifth edition. Approved standard M7-A5. NCCLS, Wayne, Pa.)
# Briefly, test compounds are prepared in 100 μl of 1.6% DMSO solution in multiwell plates. Several bacterial colonies from a freshly streaked plate are transferred to an appropriate rich broth, such as Mueller Hinton. The cell suspension is adjusted to an optical density of 0.09 and further diluted 1:100 with warm 2× broth. This cell suspension is dispensed into the wells containing compound solution so that the final volume is 200 μl. The plates are incubated overnight (16-20 hours) at 37° C. and turbidity is scored by eye and quantified spectrophotometrically. The MIC is defined as the lowest concentration inhibiting visible growth.
# Some of the Examples were also tested for activity against other bacterial species. […] Activities were again scored as ‘A’ if the MIC was ≦8 micrograms/ml, ‘B’ if the MIC was 16 to 64 micrograms/ml and ‘C’ if the MIC was greater than 64 micrograms/ml.
# [4] = Staphylococcus epidermidis, ATCC12228, read-out: MIC Activity Staphylococcus epidermidis ATCC 12228
MIC [1] [µg/mL],MIC [2] [µg/mL],"MIC [3, 4] [µg/mL]",SMILES,"MIC ([3]; Staphylococcus haemolyticus, ATCC29970, read-out: MIC Activity Staphylococcus haemolyticus ATCC 29970) [µg/mL]"
< 8,< 8,< 8,"NC(=O)c1c(F)ccc(OCc2nc3ccccc3s2)c1F [Example 215, 3-(1,3-Benzothiazol-2-ylmethoxy)-2,6-difluorobenzenecarboxamide]",–
< 8,< 8,< 8,"NC(=O)c1cccc(OCc2nc(-c3ccc(Cl)cc3)cs2)c1F [Example 271, 3-[4-(4-Chloro-phenyl)-thiazol-2-ylmethoxy]-2-fluoro-benzamide]",–
< 8,< 8,< 8,"COc1ccc(-c2nc(COc3ccc(F)c(C(N)=O)c3F)sc2-c2ccc(OC)cc2)cc1 [Example 282, 2,6-Difluoro-3-[5-(4-methoxy-phenyl)-4-(4-methoxy-phenyl)-thiazol-2-ylmethoxy]-benzamide]",–
< 8,< 8,–,"COc1ccc(-c2nc(COc3ccc(F)c(C(N)=O)c3F)sc2-c2ccccc2)cc1 [Example 287, 2,6-Difluoro-3-[4-(4-methoxy-phenyl)-5-phenyl-thiazol-2-ylmethoxy]-benzamide]",< 8
< 8,< 8,< 8,"COc1ccc(-c2coc(COc3ccc(F)c(C(N)=O)c3F)n2)cc1 [Example 311, 2,6-Difluoro-3-[4-(4-methoxy-phenyl)-oxazol-2-ylmethoxy]-benzamide]",–
